How the values were obtained:
[1] = target: T1, AtGSTU19 (Arabidopsis thaliana, UniProt Q9ZRW8); test: UPLC-qTOF MS initial velocities, Michaelis-Menten non-linear regression; format: biochemical; conditions: co-substrate glutathione; unit printed as µmol (amount, not concentration)
T1 construct: gene GSTU19
From the text: UPLC-qTOF MS initial velocities, Michaelis-Menten non-linear regression on AtGSTU19

[2] = target: T2, AtGSTU7 (Arabidopsis thaliana, UniProt Q9ZW24); test: as above; format: biochemical; conditions: co-substrate glutathione; unit printed as µmol (amount, not concentration)
T2 construct: gene GSTU7
T2 sequence (Q9ZW24 1-227): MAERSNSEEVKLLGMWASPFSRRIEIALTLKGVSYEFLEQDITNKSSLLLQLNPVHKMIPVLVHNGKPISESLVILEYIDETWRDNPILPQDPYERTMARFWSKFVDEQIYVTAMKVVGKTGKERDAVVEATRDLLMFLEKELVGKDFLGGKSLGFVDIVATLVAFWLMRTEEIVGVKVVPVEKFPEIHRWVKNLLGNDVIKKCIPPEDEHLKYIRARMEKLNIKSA
From the text: UPLC-qTOF MS initial velocities, Michaelis-Menten non-linear regression on AtGSTU7

T1 sequence (Q9ZRW8 whole entry): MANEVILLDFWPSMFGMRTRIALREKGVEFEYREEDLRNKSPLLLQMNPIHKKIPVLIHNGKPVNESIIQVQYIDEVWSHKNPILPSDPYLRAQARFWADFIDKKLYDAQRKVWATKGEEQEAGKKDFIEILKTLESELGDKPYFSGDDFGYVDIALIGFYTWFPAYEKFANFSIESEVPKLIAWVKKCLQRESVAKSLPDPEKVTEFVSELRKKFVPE

CC(C)N(C(=O)COc1nnc(C(F)(F)F)s1)c1ccc(F)cc1 [flufenacet]
Km [1]: 95.08 µmol
Km [2]: 109.57 µmol
